{
  "source": "patent US10254273B2",
  "about": "“Method and kit for assessment of sodium channel-related anti- or pro-arrhythmic potential of compounds” (RUPRECHT-KARLS-UNIVERSITAET HEIDELBERG, priority 2014, dated 2019)",
  "biological_target": "T1, cardiac sodium channels Nav1.5 in the intercalated discs of cardiomyocytes (Mus musculus, UniProt Q9JJV9)",
  "T1 construct": "The heart was harvested and perfused in the Langendorff system; endogenous in cells; host or cells: primary adult mouse cardiomyocytes isolated from heart by Langendorff perfusion",
  "T1 sequence (Q9JJV9 whole entry, the tested form may be a part)": "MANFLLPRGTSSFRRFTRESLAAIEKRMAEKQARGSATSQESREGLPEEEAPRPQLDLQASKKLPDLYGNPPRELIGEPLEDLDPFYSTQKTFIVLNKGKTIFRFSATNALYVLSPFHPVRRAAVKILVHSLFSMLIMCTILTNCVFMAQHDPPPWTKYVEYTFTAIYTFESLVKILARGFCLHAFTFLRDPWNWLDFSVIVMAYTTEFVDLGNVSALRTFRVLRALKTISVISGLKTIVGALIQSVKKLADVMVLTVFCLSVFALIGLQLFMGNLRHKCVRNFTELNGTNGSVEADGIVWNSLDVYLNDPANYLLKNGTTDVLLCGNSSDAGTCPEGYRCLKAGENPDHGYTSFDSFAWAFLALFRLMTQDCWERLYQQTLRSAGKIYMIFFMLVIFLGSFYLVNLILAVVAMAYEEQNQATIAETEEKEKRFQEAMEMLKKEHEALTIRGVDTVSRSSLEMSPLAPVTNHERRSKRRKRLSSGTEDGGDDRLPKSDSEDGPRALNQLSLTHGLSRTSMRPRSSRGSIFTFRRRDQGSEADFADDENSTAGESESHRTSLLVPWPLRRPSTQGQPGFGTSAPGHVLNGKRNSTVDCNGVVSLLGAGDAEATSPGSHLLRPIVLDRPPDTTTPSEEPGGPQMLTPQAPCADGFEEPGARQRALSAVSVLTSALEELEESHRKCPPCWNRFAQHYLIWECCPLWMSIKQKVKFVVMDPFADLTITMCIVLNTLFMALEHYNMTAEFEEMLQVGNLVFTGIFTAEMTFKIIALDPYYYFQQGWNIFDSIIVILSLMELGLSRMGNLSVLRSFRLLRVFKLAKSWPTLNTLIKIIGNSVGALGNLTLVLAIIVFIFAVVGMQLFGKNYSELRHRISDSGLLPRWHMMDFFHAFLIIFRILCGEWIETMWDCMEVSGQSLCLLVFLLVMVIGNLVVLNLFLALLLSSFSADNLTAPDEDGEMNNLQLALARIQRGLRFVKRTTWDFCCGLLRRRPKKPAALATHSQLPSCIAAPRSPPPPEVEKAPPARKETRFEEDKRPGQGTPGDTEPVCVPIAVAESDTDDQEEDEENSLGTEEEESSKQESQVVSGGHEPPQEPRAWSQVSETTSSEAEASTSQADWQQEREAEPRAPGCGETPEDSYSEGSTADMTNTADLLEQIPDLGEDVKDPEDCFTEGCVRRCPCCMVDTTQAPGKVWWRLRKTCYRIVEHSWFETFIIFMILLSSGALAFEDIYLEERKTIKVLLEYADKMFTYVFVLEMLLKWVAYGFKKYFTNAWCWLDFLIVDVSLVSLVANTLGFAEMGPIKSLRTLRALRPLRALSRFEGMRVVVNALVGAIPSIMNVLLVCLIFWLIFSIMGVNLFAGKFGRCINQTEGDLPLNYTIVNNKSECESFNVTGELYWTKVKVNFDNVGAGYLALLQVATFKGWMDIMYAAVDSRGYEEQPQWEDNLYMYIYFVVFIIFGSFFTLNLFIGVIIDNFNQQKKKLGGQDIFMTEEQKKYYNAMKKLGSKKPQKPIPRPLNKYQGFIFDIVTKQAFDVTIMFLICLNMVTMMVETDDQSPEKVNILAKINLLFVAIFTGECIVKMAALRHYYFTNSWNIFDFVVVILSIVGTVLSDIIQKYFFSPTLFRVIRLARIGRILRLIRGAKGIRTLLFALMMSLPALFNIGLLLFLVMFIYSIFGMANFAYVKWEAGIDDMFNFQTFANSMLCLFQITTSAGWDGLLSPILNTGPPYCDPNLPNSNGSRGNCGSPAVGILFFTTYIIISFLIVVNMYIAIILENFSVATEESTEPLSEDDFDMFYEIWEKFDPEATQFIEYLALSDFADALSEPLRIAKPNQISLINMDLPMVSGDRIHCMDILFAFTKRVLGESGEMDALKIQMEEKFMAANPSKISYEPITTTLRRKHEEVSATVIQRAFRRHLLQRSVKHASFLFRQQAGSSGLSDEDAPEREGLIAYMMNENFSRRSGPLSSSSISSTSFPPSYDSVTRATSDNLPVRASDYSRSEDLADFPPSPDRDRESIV",
  "assay": "Nav1.5 density change in intercalated discs of cardiomyocytes (immunocytochemistry, confocal microscopy)",
  "format": "cell-based",
  "settings": "test compound at a concentration of 100 μM or higher vs. untreated sample, p<0.05",
  "experimental": "Briefly, the mice were injected with 200 IU heparin i.p. prior to sacrifice. The thoracic chamber was opened and a cannula with perfusion solution was inserted from the atria. The heart was harvested and perfused in the Langendorff system with Perfusion Buffer at 37° C. for 5 min, followed by Digestion Buffer until the heart muscle was pale and some signs of extracellular matrix dissociation appeared. The heart was perfused for additional 5 min with Perfusion Buffer to stop the dissociation. The cardiomyocytes were mechanically dissociated in TB-A and then plated on ECM-coated (Sigma cat. no. E-1270) petri dish (Zell-Kontakt cat. no. 5160-30). […]\nConfocal images of red and green immunofluorescence of stained cardiomyocytes were acquired, e.g. on a Leica confocal laser scanning unit TCS NT, which is coupled to a Leica DM IRB microscope. […] Fluorescence signals of Nav1.5 staining were recorded at 20%, 50% and 80% laser intensity, and fluorescence signals of cadherin was recorded at 80% laser intensity to generate the Region of Interest (ROI) (modified from Yampolsky et al., 2010, a). All images were digitally saved and later processed with Image) (NIH, Bethesda, Md., USA) software using proprietary quantification methods and standard Image) plug-ins.\nROI were set as defined by the fluorescence signals of the cadherin staining, which represented the intercalated discs. […]",
  "data": [
    {"smiles": "O=C(NCC1CCCCN1)c1cc(OCC(F)(F)F)ccc1OCC(F)(F)F", "note": "(stereo not shown) [flecainide]", "values": [
      {"measurement": "change of the Nav1.5 density in comparison to the untreated sample", "value": "significant change"}
    ]}
  ]
}
